Reference: US9890166B2, “Imidazopyrrolidine derivatives and their use in the treatment of disease” (NOVARTIS AG, priority 2013, dated 2018)

Key:
[1] = biological target: CREBBP bromodomain (His-CREBBP(1081-1197)) (Homo sapiens (Human), UniProt Q92793); assay: AlphaScreen in-vitro binding assay for CREBBP; details: single determination or n ≧ 2 independent determinations, read-out: Biochemical IC50 CREBBP
In short: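 Reactions at 30 °C for 35 min, then Ni-chelate acceptor and streptavidin donor beads in HEPES pH 7.5, NaCl, Tween20, BSA, 60 min at room temperature. Eight-point compound series; IC50 by non-linear regression of percent inhibition.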

[2] = biological target: BRD2 (His-Brd2(60-472)) (Homo sapiens (Human), UniProt P25440); assay: TR-FRET in-vitro binding assay for BRD2; details: single determination or n ≧ 2 independent determinations, read-out: Biochemical IC50 BRD2
Sequence of BRD2 (His-Brd2(60-472)) (P25440 60-472): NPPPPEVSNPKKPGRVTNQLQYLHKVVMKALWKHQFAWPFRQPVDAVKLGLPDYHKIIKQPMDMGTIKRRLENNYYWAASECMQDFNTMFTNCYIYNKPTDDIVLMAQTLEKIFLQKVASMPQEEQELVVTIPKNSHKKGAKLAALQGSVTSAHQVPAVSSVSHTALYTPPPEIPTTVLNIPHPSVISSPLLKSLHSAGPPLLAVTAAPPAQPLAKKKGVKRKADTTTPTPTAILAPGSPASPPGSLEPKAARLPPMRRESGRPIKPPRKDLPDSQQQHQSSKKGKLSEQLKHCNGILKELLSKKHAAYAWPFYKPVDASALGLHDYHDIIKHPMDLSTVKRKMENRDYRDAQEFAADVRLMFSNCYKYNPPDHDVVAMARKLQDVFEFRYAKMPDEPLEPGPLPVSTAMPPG
In short: (§1)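 TR-FRET binding with His-tagged bromodomain constructs, 8-point compound dilutions from 10 mM DMSO stocks. Reactions incubated 35 min at 30° C in 13.55 μL, read on an EnVision multilabel reader.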

[3] = test system: MV-4-11 cells; assay: Cell growth inhibition assay (CellTiter-Glo), MV-4-11; details: for GI50: Homo sapiens, MV4-11, read-out: MV-4-11 GI50; for MV-4-11 TGI: MV-4-11 cells, total growth inhibition, CellTiter-Glo;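 for all read-outs here: cellular ATP luminescence after 4 days, 3-fold dilution series from 10 µM top dose, vehicle (0.1% DMSO) set to 100%, cell-free medium set to −100%, day 0 corrected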
[4] = biological target: BRD4 (His-Brd4(44-477)) (Homo sapiens (Human), UniProt O60885); assay: TR-FRET in-vitro binding assay for BRD4; details: single determination or n ≧ 2 independent determinations, read-out: Biochemical IC50 BRD4
In short: as §1

[5] = test system: THP-1 cells; assay: Cell growth inhibition assay (CellTiter-Glo), THP-1; details: for GI50: Homo sapiens, THP-1, read-out: THP-1 GI50; for THP-1 TGI: THP-1 cells, total growth inhibition, CellTiter-Glo;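 for all read-outs here: viability read as cellular ATP luminescence after 4 days, 3-fold dilution series from 10 µM, DMSO vehicle-treated cells taken as 100%, cell-free medium wells as −100%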
[6] = biological target: BRD3 (His-Brd3(20-477)) (Homo sapiens (Human), UniProt Q15059); assay: TR-FRET in-vitro binding assay for BRD3; details: single determination or n ≧ 2 independent determinations, read-out: Biochemical IC50 BRD3
Sequence of BRD3 (His-Brd3(20-477)) (Q15059 20-477): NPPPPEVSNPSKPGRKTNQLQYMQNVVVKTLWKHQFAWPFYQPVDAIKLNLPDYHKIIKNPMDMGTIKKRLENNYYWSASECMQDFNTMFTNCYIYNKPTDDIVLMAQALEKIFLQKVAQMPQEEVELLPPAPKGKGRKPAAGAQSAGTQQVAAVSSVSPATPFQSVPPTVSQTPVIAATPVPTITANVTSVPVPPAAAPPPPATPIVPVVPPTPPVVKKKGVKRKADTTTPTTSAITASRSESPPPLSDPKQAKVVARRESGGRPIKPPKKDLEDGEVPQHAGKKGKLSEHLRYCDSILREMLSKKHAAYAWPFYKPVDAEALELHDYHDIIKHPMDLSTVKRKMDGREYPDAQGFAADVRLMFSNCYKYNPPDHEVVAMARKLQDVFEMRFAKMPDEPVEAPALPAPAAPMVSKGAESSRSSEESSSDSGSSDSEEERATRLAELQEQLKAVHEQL
In short: as §1

[7] = test system: K-562 cells; assay: Cell growth inhibition assay (CellTiter-Glo), K-562; details: for GI50: Homo sapiens, K562, read-out: K-562 GI50; for K-562 TGI: K-562 cells, total growth inhibition, CellTiter-Glo;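 for all read-outs here: cellular ATP measured by luminescence after 4 days of exposure, 3-fold dilution series from 10 µM, DMSO vehicle-treated cells define 100%, cell-free medium wells −100%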

Sequence of CREBBP bromodomain (His-CREBBP(1081-1197)) (Q92793 1081-1197): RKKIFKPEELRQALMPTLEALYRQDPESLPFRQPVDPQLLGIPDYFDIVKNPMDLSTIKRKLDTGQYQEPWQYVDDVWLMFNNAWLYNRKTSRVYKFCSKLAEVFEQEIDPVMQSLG

Row | SMILES | IC50 [1] [nM] | IC50 [2] [nM] | GI50 [3] [nM] | MV-4-11 TGI [3] [nM] | IC50 [4] [nM] | GI50 [5] [nM] | THP-1 TGI [5] [nM] | IC50 [6] [nM] | GI50 [7] [nM] | K-562 TGI [7] [nM]
1 | COc1cc(N2C(=O)c3nc(C4CCN(C)CC4)n(C(C)C)c3C2c2ccc(Cl)cc2)cc2c1nnn2C (stereo not shown) [Example 97] | 15600 | 58 | 38.4 | 90.2 | 23.5 | 148 | 432 | 35.5 | 596 | >10000
2 | Cc1cc(N2C(=O)c3nc(C4CCN(C)CC4)n(C(C)C)c3C2c2ccc(Cl)cc2)cn2c(C)nnc12 (stereo not shown) [Example 98, 6-(4-chlorophenyl)-5-(3,8-dimethyl-[1,2,4]triazolo[4,3-a]pyridin-6-yl)-1-isopropyl-2-(1-methylpiperidin-4-yl)-5,6-dihydropyrrolo[3,4-d]imidazol-4(1H)-one] | 2900 | 28 | 126 | 282 | 15 | 472 | 2140 | 23 | 3630 | >10000
3 | Cc1cc(N2C(=O)c3nc(C4=CCOCC4)n(C(C)C)c3C2c2ccc(Cl)cc2)nn2c(C)nnc12 (stereo not shown) [Example 100, 6-(4-chlorophenyl)-2-(3,6-dihydro-2H-pyran-4-yl)-5-(3,8-dimethyl-[1,2,4]triazolo[4,3-b]pyridazin-6-yl)-1-isopropyl-5,6-dihydropyrrolo[3,4-d]imidazol-4(1H)-one] | > 37000 | 63 | 4.96 | 13.8 | 26.5 | 7.22 | 26.7 | 25 | 42.9 | >10000
4 | Cc1cc(N2C(=O)c3nc(C4CCOCC4)n(C(C)C)c3C2c2ccc(Cl)cc2)nn2c(C)nnc12 (stereo not shown) [Example 101, 6-(4-chlorophenyl)-5-(3,8-dimethyl-[1,2,4]triazolo[4,3-b]pyridazin-6-yl)-1-isopropyl-2-(tetrahydro-2H-pyran-4-yl)-5,6-dihydropyrrolo[3,4-d]imidazol-4(1H)-one] | 19600 | 34 | 1.86 | 4.11 | 23 | 3.49 | 11.05 | 24 | 15.5 | >10000
5 | Cc1cc(N2C(=O)c3nc(C4CCOCC4)n(C(C)C)c3[C@H]2c2ccc(Cl)cc2)nn2c(C)nnc12 [Example 102, (R)-6-(4-chlorophenyl)-5-(3,8-dimethyl-[1,2,4]triazolo[4,3-b]pyridazin-6-yl)-1-isopropyl-2-(tetrahydro-2H-pyran-4-yl)-5,6-dihydropyrrolo[3,4-d]imidazol-4(1H)-one] | 17400 | 20 | 1.38 | 4.435 | 15 | 2.95 | 10.51 | 17 | 13.4 | >10000
6 | Cc1cc(N2C(=O)c3nc(C4=CCOCC4)n(C(C)C)c3[C@H]2c2ccc(Cl)cc2)nn2c(C)nnc12 [Example 103, (R)-6-(4-chlorophenyl)-2-(3,6-dihydro-2H-pyran-4-yl)-5-(3,8-dimethyl-[1,2,4]triazolo[4,3-b]pyridazin-6-yl)-1-isopropyl-5,6-dihydropyrrolo[3,4-d]imidazol-4(1H)-one] | > 37000 | < 11 | 2.09 | 3.945 | < 11 | 3.47 | 10.55 | < 11 | 12.4 | >10000
7 | Cc1cc(N2C(=O)c3nc(C4CCN(CC(C)(C)C)CC4)n(C(C)C)c3C2c2ccc(Cl)cc2)cn2c(C)nnc12 (stereo not shown) [Example 104, 6-(4-chlorophenyl)-5-(3,8-dimethyl-[1,2,4]triazolo[4,3-a]pyridin-6-yl)-1-isopropyl-2-(1-neopentylpiperidin-4-yl)-5,6-dihydropyrrolo[3,4-d]imidazol-4(1H)-one] | 2800 | 41 | 8.21 | 18.7 | 24.5 | 21.2 | 53.95 | 33 | 53.4 | >10000
8 | Cc1cc(N2C(=O)c3ncn(C(C)C)c3C2c2ccc(Cl)cc2)cc2c1nnn2C (stereo not shown) [Example 106, 6-(4-chlorophenyl)-5-(1,4-dimethyl-1H-benzo[d][1,2,3]triazol-6-yl)-1-isopropyl-5,6-dihydropyrrolo[3,4-d]imidazol-4(1H)-one] | 7200 | 90 | 19.3 | 34.7 | 40.5 | 50.1 | 86.8 | 41.5 | 92.5 | >10000
9 | Cc1cc(N2C(=O)c3nc(C4CC4)n(C(C)C)c3[C@H]2c2ccc(Cl)cc2)cn2c(C)nnc12 [Example 107, (R)-6-(4-chlorophenyl)-2-cyclopropyl-5-(3,8-dimethyl-[1,2,4]triazolo[4,3-a]pyridin-6-yl)-1-isopropyl-5,6-dihydropyrrolo[3,4-d]imidazol-4(1H)-one] | 1450 | 28 | 4.84 | 9.71 | 23 | 11.2 | 23.75 | 23 | 41.8 | >10000
10 | COc1cc(N2C(=O)c3nc(C4CCOCC4)n(C(C)C)c3[C@H]2c2ccc(Cl)cc2)cc2c1nnn2C [Example 108] | 9750 | 180 | 20.7 | 42.95 | 61 | 47.4 | 113 | 74 | 132 | >10000
11 | Cc1cc(N2C(=O)c3nc(C)n(C(C)C)c3[C@H]2c2ccc(Cl)cc2)cc2c1nnn2C [Example 109, (R)-6-(4-chlorophenyl)-5-(3,7-dimethyl-3H-benzo[d][1,2,3]triazol-5-yl)-1-isopropyl-2-methyl-5,6-dihydropyrrolo[3,4-d]imidazol-4(1H)-one] | 4350 | 38 | 6.29 | 15.35 | 22 | 11.9 | 35.8 | 19 | 52 | >10000
12 | Cc1cc(N2C(=O)c3nc(C)n(C(C)C)c3[C@H]2c2ccc(Cl)cc2)nn2c(C)nnc12 [Example 110, (R)-6-(4-chlorophenyl)-5-(3,8-dimethyl-[1,2,4]triazolo[4,3-b]pyridazin-6-yl)-1-isopropyl-2-methyl-5,6-dihydropyrrolo[3,4-d]imidazol-4(1H)-one] | 35900 | 12 | 4.48 | 11 | < 11 | 6.94 | 21.6 | < 11 | 30.6 | >10000
13 | COc1ncccc1-c1nc2c(n1C(C)C)[C@@H](c1ccc(Cl)cc1)N(c1cc(OC)c3nnn(C)c3c1)C2=O [Example 111] | 8900 | 33 | 18.6 | 44.65 | 14 | 40.2 | 92.1 | 20 | 90.1 | >10000
